Assay results published in ChEMBL document CHEMBL4699609, “Synthesis and biological activities of simplified aplysiatoxin analogs focused on the CH/π interaction” (Bioorg Med Chem Lett, 2020).
Calls of active or inactive are those of the source. No cut-off for these calls is given here.

Tests used:
[1] = Antiproliferative activity against human HBC-4 cells assessed as cell growth inhibition after 48 hrs by sulforhodamine B assay; format: functional; settings: HBC4
[2] = tested on: MDA-MB-231; assay: Antiproliferative activity against human MDA-MB-231 cells assessed as cell growth inhibition after 48 hrs by sulforhodamine B assay; format: functional
[3] = tested on: SF-295; assay: Antiproliferative activity against human SF-295 cells assessed as cell growth inhibition after 48 hrs by sulforhodamine B assay; format: functional
[4] = tested on: HCC 2998; assay: Antiproliferative activity against human HCC 2998 cells assessed as cell growth inhibition after 48 hrs by sulforhodamine B assay; format: functional
[5] = tested on: NCI-H460; assay: Antiproliferative activity against human NCI-H460 cells assessed as cell growth inhibition after 48 hrs by sulforhodamine B assay; format: functional
[6] = tested on: A549; assay: Antiproliferative activity against human A549 cells assessed as cell growth inhibition after 48 hrs by sulforhodamine B assay; format: functional
[7] = tested on: LOX IMVI; assay: Antiproliferative activity against human LOX IMVI cells assessed as cell growth inhibition after 48 hrs by sulforhodamine B assay; format: functional
[8] = tested on: St-4; assay: Antiproliferative activity against human St-4 cells assessed as cell growth inhibition after 48 hrs by sulforhodamine B assay; format: functional
[9] = tested on: MKN-45; assay: Antiproliferative activity against human MKN-45 cells assessed as cell growth inhibition after 48 hrs by sulforhodamine B assay; format: functional
[10] = target: Protein kinase C alpha type (Mus musculus, UniProt P20444); assay: Displacement of [3H]-PDBu from PKCalpha C1A domain in CD-1 mouse brain cytosol; format: subcellular
[11] = target: Protein kinase C delta type (Mus musculus, UniProt P28867); assay: Displacement of [3H]-PDBu from PKCdelta C1B domain in CD-1 mouse brain cytosol; format: subcellular
Sequence of Protein kinase C delta type (P28867 whole entry, the tested form may be a part): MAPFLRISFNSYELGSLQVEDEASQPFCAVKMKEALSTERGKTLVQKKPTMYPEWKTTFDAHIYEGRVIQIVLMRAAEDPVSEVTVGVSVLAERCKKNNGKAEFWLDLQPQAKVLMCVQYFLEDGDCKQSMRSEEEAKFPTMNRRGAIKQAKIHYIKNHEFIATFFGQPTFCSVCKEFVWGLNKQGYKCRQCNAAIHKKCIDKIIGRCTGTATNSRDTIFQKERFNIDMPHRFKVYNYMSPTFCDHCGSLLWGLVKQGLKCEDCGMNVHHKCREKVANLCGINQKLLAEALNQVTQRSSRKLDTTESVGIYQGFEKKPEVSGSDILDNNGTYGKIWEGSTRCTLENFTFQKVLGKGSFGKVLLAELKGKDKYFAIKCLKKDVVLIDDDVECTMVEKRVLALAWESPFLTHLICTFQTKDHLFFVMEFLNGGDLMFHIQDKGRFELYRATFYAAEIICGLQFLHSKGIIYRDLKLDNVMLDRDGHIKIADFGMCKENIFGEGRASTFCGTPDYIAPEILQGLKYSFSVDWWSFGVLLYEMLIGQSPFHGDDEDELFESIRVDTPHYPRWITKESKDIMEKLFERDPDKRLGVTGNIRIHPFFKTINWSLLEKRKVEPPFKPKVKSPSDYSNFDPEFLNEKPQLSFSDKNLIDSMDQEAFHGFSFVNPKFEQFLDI

[12] = tested on: Ear; assay: Proinflammatory activity in ICR mouse assessed as increase in relative weight of each ear at 17 nmol measured after 24 hrs; format: functional, tissue-based
[13] = Induction of inflammation in ICR mouse assessed as increase in relative weight of each ear at 170 nmol measured after 24 hrs; format: tissue-based

## C[C@H]1[C@@H]2C[C@@]3(O[C@H](CCC3(C)C)CC(=O)O[C@@H](CO)CC(=O)O2)O[C@@H]1CCCCc1cccc2cc(OCc3ccccc3)ccc12
[1]
  GI50: 63.1 nM
[2]
  GI50: 537 nM
[3]
  GI50: 871 nM
[4]
  GI50: 398 nM
[5]
  GI50: 115 nM
[6]
  GI50: 692 nM
[7]
  GI50: 182 nM
[8]
  GI50: 52.5 nM
[9]
  GI50: 195 nM
[10]
  Ki: 7.6 nM
[11]
  Ki: 0.74 nM
[12]
  Activity: Active

## C[C@H]1[C@@H]2C[C@@]3(O[C@H](CCC3(C)C)CC(=O)O[C@@H](CO)CC(=O)O2)O[C@@H]1CCCCc1cccc2cc(O)ccc12
[1]
  GI50: 91.2 nM
[2]
  GI50: 891 nM
[3]
  GI50: 955 nM
[4]
  GI50: 501 nM
[5]
  GI50: 162 nM
[6]
  GI50: 759 nM
[7]
  GI50: 447 nM
[8]
  GI50: 240 nM
[9]
  GI50: 479 nM
[10]
  Ki: 6.4 nM
[11]
  Ki: 0.98 nM
[13]
  Activity: Toxic

## C[C@H]1[C@@H]2C[C@@]3(O[C@H](CCC3(C)C)CC(=O)O[C@@H](CO)CC(=O)O2)O[C@@H]1CCCCc1cccc(O)c1
[13]
  Activity: Toxic
